Legend:
dorsal excisional wounds = experiment: Quantitative analysis of collagen/ECM ultrastructure (Picrosirius Red, machine learning) of healed wounds; format: in vivo, mouse
Experimental: For analysis of Picrosirius Red-stained histologic sections, scars and surrounding normal skin from three biologic replicates were randomly imaged at 5 to 10 separate locations each, for a minimum of 20 images per experimental condition. Next, color deconvolution of Picrosirius Red images was performed in ImageJ using the algorithm previously described by Ruifrok et al., (A. C. Ruifrok, D. A. Johnston, Quantification of histochemical staining by color deconvolution. Anal Quant Cytol Histol 23, 291-299 (2001)) wherein each pure stain is characterized by absorbances within three RGB channels (Color 1=[1 0 0], Color 2=[0 1 0], Color 3=[1 1 1]). Ortho-normal transformation of the histology images produced individual images corresponding to each color's individual contribution to the image. Applied to birefringent Picrosirius Red images (green to red color under polarized light depending on packing of fiber bundles), this technique produced deconvoluted red and green images corresponding to mature and immature connective tissue fibers, which were then analyzed independently. Analysis was thus performed purely using extracellular matrix fibers, with no cellular elements included. Noise reduction of deconvoluted fibers was achieved using an adaptive Wiener filter in Matlab 2019a (wiener2 function), which tailors itself to the local image variance within a pre-specified neighborhood (3-by-3 pixels in the current application). The filter preferentially smooths regions with low variance, thereby preserving sharp edges of fibers. Smooth images were then binarized using the im2bw command and processed through erosion and dilation filters with both linear and diamond-shaped structuring elements to select for fiber-shaped objects. Finally, the fiber network was “skeletonized” using the bwmorph command and various parameters of the digitized map (fiber length, width, persistence, alignment, etc.) were measured using the regionprops command. Dimensionality reduction of quantified fiber network properties by […] stochastic neighbor embedding (t-SNE) was achieved using the default tsne (distance metric specified as Euclidian distance) command in Matlab. A Matlab script containing the fiber quantification pipeline is available at the following Github repository: https://github.com/shamikmascharak/Mascharak-et-al-ENF
To overcome these challenges, a novel machine learning algorithm recently reported to quantitatively assess connective tissue and fibrosis based on standard histology stains was employed. (S. Mascharak et al., Automated machine learning analysis of connective tissue networks in acute and chronic skin fibroses (manuscript submitted). (2019)) Briefly, images of Picrosirius Red-stained tissue were color-deconvoluted to isolate ECM fibers from cell bodies and nuclei. Fiber components were image-processed to reduce noise, then binarized to produce a digital map of thousands of fibers and branchpoints. A panel of individual (e.g., length, width) and group (e.g., packing, alignment) fiber properties was then measured to quantitatively profile ECM features.
Verteporfin- and control-treated specimens were stained with Picrosirius Red and subjected to this analysis.

[1] = tested on: mechanically loaded dorsal incisional wounds; experiment: Mechanical loading of dorsal incisional wounds with Verteporfin treatment; format: in vivo, mouse
Experimental: 20 mm-long linear wounds were produced on the dorsum of P60 En-1^Cre-ERT;Ai6 mice and then closed with sutures. On POD 4, a loading device (constructed from 22 mm expansion screws and Luhr plate supports) was secured over each wound with adhesive and simple interrupted sutures. For mice receiving mechanotransduction signaling inhibitor, 30 μL of Verteporfin (1 mg/mL) was injected along the suture line both at POD 0 and POD 4; PBS was injected into wounds for vehicle controls. Device tension was increased by distracting expansion 2 mm every 2 days for 10 days total. Mice with unexpanded devices served as sham surgery controls. On POD 14, wounds were harvested and processed for histology to characterize the effects of increased wound tension on activation of ENFs to scarring pEPFs. In FIG. 2, G-I, a minimum of 4 mice was used for each experimental group.
Tissues were fixed in 2% paraformaldehyde for 16 h at 4° C. Samples were prepared for embedding by soaking in 30% sucrose in PBS for 1 week at 4° C. Samples were then removed from the sucrose solution, and tissue blocks were prepared by embedding in Tissue Tek U.C.T. (Sakura Finetek) under dry ice to achieve rapid freezing. Frozen blocks were mounted on a Thermo Scientific CryoStar NX70 cryostat, and 10 μm-thick sections were transferred to SuperfrostfPlus adhesive slides (Fisher). For hematoxylin and eosin staining, standard protocols were used with no modifications. For immunofluorescent staining, slides were blocked for 1 hr with Power Block (Biogenex) prior to addition of the following primary antibodies: Abeam ab34710 (anti-collagen type I), Abeam ab28340 (anti-CD26), Invitrogen MA5-15915 (anti-Dlk1), Abeam ab51317 (anti-Scat), Abeam ab5694 (anti-α-SMA), Santa Cruz Biotechnology sc-101199 (anti-YAP), Abeam ab7800 (anti-CK14), and Abeam ab52625 (anti-CK19). Slides were then incubated for 1 h with Alexa Fluor 568 or Alexa Fluor 647-conjugated anti-rabbit, anti-rat, or anti-mouse antibodies (Invitrogen). Finally, slides were mounted in Fluoromount-G mounting solution with DAPI (Thermo Fisher). Brightfield images were acquired with a Leica DMI4000B microscope, while fluorescent images were acquired with a Leica DM6000 SP5 upright confocal microscope.
Then, whether mechanical tension similarly promoted ENF-to-EPF transition in vivo was assessed. […]

In the case of verteporfin, the “Clustering of connective tissue parameters, Verteporfin-treated wounds vs unwounded skin” value (from here on “Clustering … vs unwounded skin”) (dorsal excisional wounds; 30 days) is reported as “increasing overlap”, the “Clustering … vs unwounded skin” value (dorsal excisional wounds; 90 days) is reported as “complete overlap” and the “ECM fiber metrics (fiber length, width, branching, etc.)” value (dorsal excisional wounds; POD 14) is reported as “comparable to unwounded skin”. For the same substance, the “Clustering … vs unwounded skin” value (dorsal excisional wounds; after 14 days) was “largely overlapping clusters”, the ECM features (dorsal excisional wounds; four treatments (POD 0, 4, 8 and 12)) was “diverged from those of unwounded skin” and the “Gross appearance of mechanically loaded wounds” value ([1]; 30 μL of 1 mg/mL injected at POD 0 and POD 4, harvested POD 14) was “grossly resembled control (non-mechanically loaded) wounds”. The “Number of pEPFs (GFP+ cells) in wounds” value ([1]; compared to mechanically loaded, non-Verteporfin treated wounds, POD 14) was “significantly fewer pEPFs”, the “YAP and a-SMA expression (immunofluorescent staining)” value ([1]; compared to untreated mechanically loaded wounds, POD 14) was “decreased YAP and a-SMA expression” and the “Number of YAP+ cells in wounds” value ([1]; mechanically loaded wounds, POD 14) was “significantly fewer YAP+ cells”.

Reference: patent publication US20220313658A1, “YAP Inhibition for Wound Healing” (The Board of Trustees of the Leland Stanford Junior …, priority 2019, published 2022)
